This is an account of results in ChEMBL document CHEMBL5303573, “Mapping human microbiome drug metabolism by gut bacteria and their genes” (Nature, 2019).

Data set [1] in a line: The drug is tested on Anaerotruncus colihominis strain: DSM17241 for biotransformation. The drug concentrations were measured before and after a 12-h incubation by liquid-chromatography-coupled mass spectrometry (LC–MS). The note with it: 2 µM.
Data set [2] in a line: The drug is tested on Ruminococcus torques strain: ATCC27756 for biotransformation. The drug concentrations were measured before and after a 12-h incubation by liquid-chromatography-coupled mass spectrometry (LC–MS). It is filed as ADME. The note with it: 2 µM. The arrangement: dose 2 uM, timepoint 0 vs 12 hours.
A short description of data set [3]: The drug is tested on Dorea formicigenerans strain: ATCC27755 for biotransformation. The drug concentrations were measured before and after a 12-h incubation by liquid-chromatography-coupled mass spectrometry (LC–MS). The note with it: 2 µM.
Data set [4] in a line: The drug is tested on Edwardsiella tarda strain: ATCC23685 for biotransformation. The drug concentrations were measured before and after a 12-h incubation by liquid-chromatography-coupled mass spectrometry (LC–MS). The note with it: 2 µM.
Data set [5] in a line: The drug is tested on Bacteroides fragilis strain: HMW610 for biotransformation. The drug concentrations were measured before and after a 12-h incubation by liquid-chromatography-coupled mass spectrometry (LC–MS). As to conditions: 2 µM.
Data set [6] is described as follows: The drug is tested on Bacteroides sp. WH2 strain: WH2 for biotransformation. The drug concentrations were measured before and after a 12-h incubation by liquid-chromatography-coupled mass spectrometry (LC–MS). The note with it: bacteroides sp. wh2, 12 h, 2 µM.
Data set [7] can be described thus: The drug is tested on Eubacterium ventriosum strain: ATCC27560 for biotransformation. The drug concentrations were measured before and after a 12-h incubation by liquid-chromatography-coupled mass spectrometry (LC–MS). It is filed as ADME. The arrangement: dose 2 uM, timepoint 0 vs 12 hours. As to conditions: 2 µM.
Data set [8] in a line: The drug is tested on Clostridium ramosum strain: DSM1402 for biotransformation. The drug concentrations were measured before and after a 12-h incubation by liquid-chromatography-coupled mass spectrometry (LC–MS). As to conditions: thomasclavelia ramosa, 2 µM.
Data set [9] can be described thus: The drug is tested on Bacteroides xylanisolvens strain: DSM18836 for biotransformation. The drug concentrations were measured before and after a 12-h incubation by liquid-chromatography-coupled mass spectrometry (LC–MS). As to conditions: 2 µM.
Data set [10] in a line: The drug is tested on Bacteroides fragilis strain: HMW615 for biotransformation. The drug concentrations were measured before and after a 12-h incubation by liquid-chromatography-coupled mass spectrometry (LC–MS). As to conditions: 2 µM.
For data set [11] the following is noted: bacteroides thetaiotaomicron, 12 h, 2 µM.
Description: The drug is tested on Bacteroides thetaiotaomicron strain: 3731 for biotransformation. The drug concentrations were measured before and after a 12-h incubation by liquid-chromatography-coupled mass spectrometry (LC–MS)
The conditions of data set [12]: bacteroides intestinalis, 12 h, 2 µM.
Description: The drug is tested on Bacteroides intestinalis strain: DSM17393 for biotransformation. The drug concentrations were measured before and after a 12-h incubation by liquid-chromatography-coupled mass spectrometry (LC–MS)
Data set [13] in a line: The drug is tested on Blautia luti strain: DSM14534 for biotransformation. The drug concentrations were measured before and after a 12-h incubation by liquid-chromatography-coupled mass spectrometry (LC–MS). It is filed as ADME. Details: dose 2 uM, timepoint 0 vs 12 hours. As to conditions: 2 µM.
The nature of data set [14]: The drug is tested on Ruminococcus gnavus strain: ATCC29149 for biotransformation. The drug concentrations were measured before and after a 12-h incubation by liquid-chromatography-coupled mass spectrometry (LC–MS). As to conditions: mediterraneibacter gnavus, 2 µM.
A short description of data set [15]: The drug is tested on Bifidobacterium breve strain: DSM20213 for biotransformation. The drug concentrations were measured before and after a 12-h incubation by liquid-chromatography-coupled mass spectrometry (LC–MS). As to conditions: 2 µM.
The nature of data set [16]: The drug is tested on Clostridium sporogenes strain: ATCC15579 for biotransformation. The drug concentrations were measured before and after a 12-h incubation by liquid-chromatography-coupled mass spectrometry (LC–MS). The note with it: 2 µM.
For data set [17] the following is noted: roseburia intestinalis, 12 h, 2 µM.
Description: The drug is tested on Roseburia intestinalis strain: L1-82 for biotransformation. The drug concentrations were measured before and after a 12-h incubation by liquid-chromatography-coupled mass spectrometry (LC–MS)
The conditions of data set [18]: limosilactobacillus reuteri cf48-3a, 12 h, 2 µM.
Description: The drug is tested on Lactobacillus reuteri CF48-3A strain: BEI HM-102 for biotransformation. The drug concentrations were measured before and after a 12-h incubation by liquid-chromatography-coupled mass spectrometry (LC–MS)
The nature of data set [19]: The drug is tested on Ruminococcus lactaris strain: ATCC29176 for biotransformation. The drug concentrations were measured before and after a 12-h incubation by liquid-chromatography-coupled mass spectrometry (LC–MS). As to conditions: 2 µM.
A short description of data set [20]: The drug is tested on Enterobacter cancerogenus strain: ATCC35316 for biotransformation. The drug concentrations were measured before and after a 12-h incubation by liquid-chromatography-coupled mass spectrometry (LC–MS). The note with it: 2 µM.

SMILES strings stand for the structures.

With `CCN(CC)C(=O)C1(c2ccccc2)CC1CN` (centres undefined), the “Bacterial Biotransformation” value in data set [1], in data set [2], in [3], in [4], in [5] and in data set [6] was “Compound NOT metabolized” in each case. Further, the “Bacterial Biotransformation” value in data set [7], in data set [8], in data set [9], in data set [10], in [11] and in data set [12] was “Compound NOT metabolized” throughout. Further, the “Bacterial Biotransformation” value in data set [13], in [14], in data set [15], in [16], in [17] and in data set [18] was “Compound NOT metabolized” each time. Also, the “Bacterial Biotransformation” value in data set [19] and in [20] was “Compound NOT metabolized” throughout.
Take `C[C@H]1O[C@@H](O[C@H]2[C@@H](O)C[C@H](O[C@H]3[C@@H](O)C[C@H](O[C@H]4CC[C@@]5(C)[C@H](CC[C@@H]6[C@@H]5C[C@@H](O)[C@]5(C)[C@@H](C7=CC(=O)OC7)CC[C@]65O)C4)O[C@@H]3C)O[C@@H]2C)C[C@H](O)[C@@H]1O` [DIGOXIN]: the “Bacterial Biotransformation” value was “Compound NOT metabolized” in data set [1]; “Compound NOT metabolized” in data set [2]; “Compound NOT metabolized” in data set [3]; “Compound NOT metabolized” in [4]; “Compound metabolized” in data set [5]; “Compound NOT metabolized” in [6]. In addition, the “Bacterial Biotransformation” value in data set [7] is on record as “Compound NOT metabolized”; in data set [8], “Compound NOT metabolized”; in data set [9], “Compound metabolized”; in [10], “Compound metabolized”; in data set [11], “Compound NOT metabolized”; in data set [12] it was “Compound NOT metabolized”. Moreover, the “Bacterial Biotransformation” value in [13], in [14], in data set [15], in data set [16], in data set [17] and in [18] was “Compound NOT metabolized” in each case. Further, the “Bacterial Biotransformation” value in data set [19] and in data set [20] was “Compound NOT metabolized” each time.
`O=c1[nH]c2ccccc2n1CCCN1CCC(n2c(=O)[nH]c3cc(Cl)ccc32)CC1` [DOMPERIDONE]: the “Bacterial Biotransformation” value in data set [1], in data set [2], in data set [3], in [4], in data set [5] and in data set [6] was “Compound NOT metabolized” in each case. Besides, the “Bacterial Biotransformation” value in [7], in [8], in data set [9], in data set [10], in data set [11] and in data set [12] was “Compound NOT metabolized” throughout. For the same compound, the “Bacterial Biotransformation” value in data set [13], in data set [14], in data set [15], in [16], in [17] and in data set [18] was “Compound NOT metabolized” each time. The “Bacterial Biotransformation” value in [19] and in [20] was “Compound NOT metabolized” throughout.
As for `Cc1ccc(S(=O)(=O)NC(=O)NN2CC3CCCC3C2)cc1` (centres undefined) [GLICLAZIDE], the “Bacterial Biotransformation” value is listed as “Compound NOT metabolized” in [1]; “Compound NOT metabolized” in data set [2]; “Compound NOT metabolized” in [3]; “Compound NOT metabolized” in data set [4]; “Compound metabolized” in data set [5]; “Compound NOT metabolized” in data set [6]. Besides, the “Bacterial Biotransformation” value in [7] is on record as “Compound NOT metabolized”; in data set [8] it was “Compound NOT metabolized”; in data set [9], “Compound NOT metabolized”; in [10], “Compound NOT metabolized”; in data set [11] it was “Compound metabolized”; in data set [12], “Compound NOT metabolized”. Besides, the “Bacterial Biotransformation” value in data set [13], in data set [14], in [15], in data set [16], in data set [17] and in data set [18] was “Compound NOT metabolized” each time. The “Bacterial Biotransformation” value in data set [19] and in data set [20] was “Compound NOT metabolized” throughout.
In the case of `COC(=O)C1=C(C)NC(C)=C(C(=O)OC(C)C)C1c1cccc2nonc12` (centres undefined) [ISRADIPINE], the “Bacterial Biotransformation” value in data set [1], in [2], in data set [3], in data set [4], in data set [5] and in [7] was “Compound NOT metabolized” each time. Further, the “Bacterial Biotransformation” value in data set [8], in data set [9], in [10], in data set [11], in [12] and in [13] was “Compound NOT metabolized” throughout. Further, the “Bacterial Biotransformation” value in data set [14], in data set [15], in [16], in [17], in data set [18] and in [19] was “Compound NOT metabolized” throughout. For the same compound, the “Bacterial Biotransformation” value in [20] was “Compound NOT metabolized”.
Regarding `CCC(C)n1ncn(-c2ccc(N3CCN(c4ccc(OCC5COC(Cn6cncn6)(c6ccc(Cl)cc6Cl)O5)cc4)CC3)cc2)c1=O` (centres undefined) [ITRACONAZOLE], the “Bacterial Biotransformation” value in [1], in [2], in data set [3], in [4], in data set [5] and in data set [6] was “Compound NOT metabolized” each time. The “Bacterial Biotransformation” value in [7], in data set [8], in [9], in data set [10], in [11] and in data set [12] was “Compound NOT metabolized” throughout. The “Bacterial Biotransformation” value in data set [13], in [14], in data set [15], in [16], in data set [17] and in data set [18] was “Compound NOT metabolized” throughout. The “Bacterial Biotransformation” value in data set [19] and in data set [20] was “Compound NOT metabolized” throughout.
